Like-named read-outs stand apart in the source and are kept apart here.
What was measured:
[1] = target: Cy5-labelled Mcl1 (amino acids 171-321) C286S protein (UniProtKB Q07820) (Homo sapiens (Human), UniProt Q07820, C286S); experiment: Inhibition of Mcl-1 by the fluorescence quenching assay (Example A, Method B); type: binding
Method in brief: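 Cy5-labelled Mcl1 171-321 C286S (1 nM) quenched by TQ5WS-labelled PUMA peptide (10, 20 or 400 nM); displacement raises fluorescence (Ex 620/Em 680 nm). Buffer 10 mM HEPES, 150 mM NaCl, 0.05% Tween 20, pH 7.4, 5% DMSO; 2 h at room temperature, 11-point curves, IC50 converted to Ki (cKi/eKi).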

[2] = tested on: AMO-1 multiple myeloma xenograft; experiment: Quantification of the cleaved form of PARP in vivo, per os (Example C); design: species or system SCID mice; conditions: single dose per os, tumors recovered 16 hours after dosing
Method: The ability of the compounds of the invention to induce apoptosis was evaluated in vivo using the AMO-1 multiple myeloma xenograft.
1×10^7 cells were subcutaneously grafted into immunosuppressed SCID mice. 12-14 days later, when tumors had reached the appropriate volume, mice (3 per group) were treated once with the various compounds (per os, HEC 1%/Tween 80 99:1). Tumor samples were recovered 16 hours after dosing and lysed. Cleared lysates were used for cleaved PARP quantification (as a marker of apoptosis induction) using the Meso Scale Discovery (MSD) Elisa platform test. Results are expressed as the ratio between cleaved PARP in treated mice over control mice.

NCI-H929 cell lines = experiment: In vitro cytotoxicity, CellTiter-Glo (CTG) assay (Example B, Method B); type: cell-based; conditions: NCI-H929 cells, 48 h incubation, read-out: C50
Method in brief: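 NCI-H929 cells exposed to an 11-point compound series from 10 mM DMSO stocks (top final 30 μM) for 48 h at 37° C., 5% CO2. Viability measured as ATP by CellTiter-Glo luminescence; C50 is the concentration giving 50% cellular viability.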

Cy5-labelled Mcl1 (amino acids 171-321) C286S protein, sequence (Q07820 171-321 C286S): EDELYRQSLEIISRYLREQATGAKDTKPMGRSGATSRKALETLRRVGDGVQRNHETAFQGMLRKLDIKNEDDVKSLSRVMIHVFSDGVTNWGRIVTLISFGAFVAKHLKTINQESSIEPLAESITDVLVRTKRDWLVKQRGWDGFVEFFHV

Ki [1] [nM]	SMILES	IC50 (NCI-H929 cell lines; Homo sapiens, NCI-H929, 48 h) [nM]	further results
0.0213	COC(C)(C)c1ccc2c(c1)[C@]1(CC[C@@](Nc3cccc(Cl)c3)(C(=O)O)CC1)[C@@H](C[C@@H](C)COc1ccnc3c1[C@H](C)CCC3)C2 [Example 866, (1r,2′S,4S)-4-(3-chloroanilino)-6′-(2-methoxypropan-2-yl)-2′-[(2R)-2-methyl-3-{[(5R)-5-methyl-5,6,7,8-tetrahydroquinolin-4-yl]oxy}propyl]-2′,3′-dihydrospiro[cyclohexane-1,1′-indene]-4-carboxylic acid]	–	Cleaved PARP (fold to control) ([2]; 30 mpk): 1.2 fold to control; Cleaved PARP (fold to control) ([2]; 60 mpk): 6.5 fold to control; Cleaved PARP (fold to control) ([2]; 120 mpk): 6.3 fold to control
0.109	C[C@@H](COc1ccnc2c1[C@H](C)CCC2)C[C@H]1Cc2cc(F)ccc2[C@]12CC[C@@](Nc1cccc(Cl)c1)(C(=O)O)CC2 [Example 768, (1r,2′S,4S)-4-(3-chloroanilino)-5′-fluoro-2′-[(2R)-2-methyl-3-{[(5R)-5-methyl-5,6,7,8-tetrahydroquinolin-4-yl]oxy}propyl]-2′,3′-dihydrospiro[cyclohexane-1,1′-indene]-4-carboxylic acid]	49.6	Cleaved PARP (fold to control) ([2]; 30 mpk): 0.8 fold to control; Cleaved PARP (fold to control) ([2]; 60 mpk): 15.4 fold to control; Cleaved PARP (fold to control) ([2]; 120 mpk): 30.3 fold to control
0.0908	COc1cc2c(cc1C)C[C@H](C[C@@H](C)COc1ccnc3c1[C@H](C)CCC3)[C@]21CC[C@](Nc2cccc(Cl)c2)(C(=O)O)CC1 [Example 813, (1r,2′S,4S)-4-(3-chloroanilino)-6′-methoxy-5′-methyl-2′-[(2R)-2-methyl-3-{[(5R)-5-methyl-5,6,7,8-tetrahydroquinolin-4-yl]oxy}propyl]-2′,3′-dihydrospiro[cyclohexane-1,1′-indene]-4-carboxylic acid]	184	–
0.00728	C[C@@H](COc1ccnc2c1[C@H](C)CCC2)C[C@H]1Cc2cc3c(cc2[C@]12CC[C@@](Nc1cccc(Cl)c1)(C(=O)O)CC2)O[C@@H](C)CCO3 [Example 984, (1r,4S,4'S,8′S)-4-(3-chloroanilino)-4′-methyl-8′-[(2R)-2-methyl-3-{[(5R)-5-methyl-5,6,7,8-tetrahydroquinolin-4-yl]oxy}propyl]-3′,4′,8′,9′-tetrahydro-2′H-spiro[cyclohexane-1,7′-indeno[5,6-b][1,4]dioxepine]-4-carboxylic acid]	35.5	–
0.0235	C[C@@H](COc1ccnc2c1[C@H](C)CC[C@H]2C)C[C@H]1Cc2cc3c(cc2[C@]12CC[C@@](Nc1cccc(Cl)c1)(C(=O)O)CC2)OCCO3 [Example 963, (1r,4S,7′S)-4-(3-chloroanilino)-7′-[(2R)-3-{[(5R,8R)-5,8-dimethyl-5,6,7,8-tetrahydroquinolin-4-yl]oxy}-2-methylpropyl]-2′,3′,7′,8′-tetrahydrospiro[cyclohexane-1,6′-indeno[5,6-b][1,4]dioxine]-4-carboxylic acid]	97.3	–
0.0108	COCc1cc2c(cc1F)C[C@H](C[C@@H](C)COc1ccnc3c1[C@H](C)CCC3)[C@]21CC[C@](Nc2cccc(Cl)c2)(C(=O)O)CC1 [Example 921, (1r,2′S,4S)-4-(3-chloroanilino)-5′-fluoro-6′-(methoxymethyl)-2′-[(2R)-2-methyl-3-{[(5R)-5-methyl-5,6,7,8-tetrahydroquinolin-4-yl]oxy}propyl]-2′,3′-dihydrospiro[cyclohexane-1,1′-indene]-4-carboxylic acid]	35.9	–
0.438	COc1cc2c(cc1OC)[C@]1(CC[C@@](Nc3cccc(Cl)c3)(C(=O)O)CC1)[C@@H](C[C@@H](C)COc1ccnc3c1[C@H](C)CCC3)C2 [Example 835, (1r,2′S,4S)-4-(3-chloroanilino)-5′,6′-dimethoxy-2′-[(2R)-2-methyl-3-{[(5R)-5-methyl-5,6,7,8-tetrahydroquinolin-4-yl]oxy}propyl]-2′,3′-dihydrospiro[cyclohexane-1,1′-indene]-4-carboxylic acid]	146	–
0.0573	CCCOc1ccc2c(c1)[C@]1(CC[C@@](Nc3cccc(Cl)c3)(C(=O)O)CC1)[C@@H](C[C@@H](C)COc1ccnc3c1[C@H](C)CCC3)C2 [Example 787, (1r,2′S,4S)-4-(3-chloroanilino)-2′-[(2R)-2-methyl-3-{[(5R)-5-methyl-5,6,7,8-tetrahydroquinolin-4-yl]oxy}propyl]-6′-propoxy-2′,3′-dihydrospiro[cyclohexane-1,1′-indene]-4-carboxylic acid]	103	–
–	Cc1c(Cl)cccc1N[C@]1(C(=O)O)CC[C@]2(CC1)c1cc3c(cc1CN2C[C@@H](C)COc1ccnc2c1[C@H](C)CCC2)OCO3 [Example 49, (1s,4S)-4-(3-chloro-2-methylanilino)-6′-[(2R)-2-methyl-3-{[(5R)-5-methyl-5,6,7,8-tetrahydroquinolin-4-yl]oxy}propyl]-6′,7′-dihydro-2′H-spiro[cyclohexane-1,5′-[1,3]dioxolo[4,5-f]isoindole]-4-carboxylic acid]	242	Ki ([1]; Ki determined from IC50): 0.31 nM
–	C[C@@H](COc1ccnc2c1[C@H](C)CCC2)CN1Cc2cc3c(cc2[C@]12CC[C@](Nc1ccc(F)c(Cl)c1)(C(=O)O)CC2)OCO3 [Example 48, (1r,4R)-4-(3-chloro-4-fluoroanilino)-6′-[(2R)-2-methyl-3-{[(5R)-5-methyl-5,6,7,8-tetrahydroquinolin-4-yl]oxy}propyl]-6′,7′-dihydro-2′H-spiro[cyclohexane-1,5′-[1,3]dioxolo[4,5-f]isoindole]-4-carboxylic acid]	21500	Ki ([1]; Ki determined from IC50): 104 nM
0.161	COC[C@H]1C[C@@H]1c1ccc2c(c1)[C@]1(CC[C@@](Nc3cccc(Cl)c3)(C(=O)O)CC1)[C@@H](C[C@@H](C)COc1ccnc3c1[C@H](C)CCC3)C2 [Example 874, (1r,2′S,4S)-4-(3-chloroanilino)-6′-[(1S,2S)-2-(methoxymethyl)cyclopropyl]-2′-[(2R)-2-methyl-3-{[(5R)-5-methyl-5,6,7,8-tetrahydroquinolin-4-yl]oxy}propyl]-2′,3′-dihydrospiro[cyclohexane-1,1′-indene]-4-carboxylic acid]	113	–
2.28	C[C@@H](COc1ccnc2c1[C@H](C)CCC2)C[C@H]1Cc2ccccc2[C@]12CC[C@@](Oc1cccc(Cl)c1)(C(=O)O)CC2 [Example 717, (1r,2′S,4S)-4-(3-chlorophenoxy)-2′-[(2R)-2-methyl-3-{[(5R)-5-methyl-5,6,7,8-tetrahydroquinolin-4-yl]oxy}propyl]-2′,3′-dihydrospiro[cyclohexane-1,1′-indene]-4-carboxylic acid]	367	–
3.58	C[C@@H](COc1ccnc2c1[C@@H](C)CCC2)C[C@@H]1Cc2cc3c(cc2[C@]12CC[C@@](Nc1cccc(Cl)c1)(C(=O)O)CC2)OCO3 [Example 843, (1r,4R,6′R)-4-(3-chloroanilino)-6′-[(2R)-2-methyl-3-{[(5S)-5-methyl-5,6,7,8-tetrahydroquinolin-4-yl]oxy}propyl]-6′,7′-dihydro-2′H-spiro[cyclohexane-1,5′-indeno[5,6-d][1,3]dioxole]-4-carboxylic acid]	1380	–
0.0795	CC(C)C1COc2cc3c(cc2OC1)[C@]1(CC[C@@](Nc2cccc(Cl)c2)(C(=O)O)CC1)[C@@H](C[C@@H](C)COc1ccnc2c1[C@H](C)CCC2)C3 (single isomer, unassigned) [Example 992]	184	–
0.0666	CC(C)C1COc2cc3c(cc2OC1)[C@]1(CC[C@@](Nc2cccc(Cl)c2)(C(=O)O)CC1)[C@@H](C[C@@H](C)COc1ccnc2c1[C@H](C)CCC2)C3 (single isomer, unassigned) [Example 993]	–	IC50 (NCI-H929 cell lines): 143 nM
0.037	CC1COc2cc3c(cc2OC1)[C@]1(CC[C@@](Nc2cccc(Cl)c2)(C(=O)O)CC1)[C@@H](C[C@@H](C)COc1ccnc2c1[C@H](C)CCC2)C3 (single isomer, unassigned) [Example 983]	–	IC50 (NCI-H929 cell lines): 74.4 nM
0.469	C[C@@H](COc1ccnc2c1[C@H](C)CCC2)C[C@H]1Cc2ccc(OCC(F)(F)F)cc2[C@]12CC[C@@](Nc1cccc(Cl)c1)(C(=O)O)CC2 [Example 792, (1r,2′S,4S)-4-(3-chloroanilino)-2′-[(2R)-2-methyl-3-{[(5R)-5-methyl-5,6,7,8-tetrahydroquinolin-4-yl]oxy}propyl]-6′-(2,2,2-trifluoroethoxy)-2′,3′-dihydrospiro[cyclohexane-1,1′-indene]-4-carboxylic acid]	143	–
0.321	C[C@@H](COc1ccnc2c1[C@H](C)CCC2)CC1Cc2c(Cl)c(Cl)ccc2[C@]12CC[C@@](Nc1cccc(Cl)c1)(C(=O)O)CC2 (single isomer, unassigned) [Example 752]	–	IC50 (NCI-H929 cell lines): 344 nM
